Laboratory results as given in patent US11214564B2, “Compounds with thymine skeleton for use in medicine” (TECHNISCHE UNIVERSITÄT DRESDEN, priority 2019, dated 2022).

The molecules below were run against HSP27 (Homo sapiens, UniProt P04792) (assay: Aggregation assay: HSP27 chaperone activity on heat-induced aggregation of citrate synthase). Conditions: compound 10 μM; 1.44 μM CS, 481 nM HSP27, 43° C., 500 nm.
HSP27, sequence (P04792 whole entry): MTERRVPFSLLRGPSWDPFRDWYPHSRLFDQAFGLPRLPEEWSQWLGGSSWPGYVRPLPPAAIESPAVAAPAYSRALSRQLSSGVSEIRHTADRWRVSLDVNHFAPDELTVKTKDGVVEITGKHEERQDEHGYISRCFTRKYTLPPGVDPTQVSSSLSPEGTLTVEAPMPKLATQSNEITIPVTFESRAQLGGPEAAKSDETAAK
Assay type: biochemical
Procedure: To test how small molecules affect the chaperone activity of HSP27, misfolding and aggregation of citrate synthase (CS), a well-known in vitro client protein of HSP27, was measured. Citrate synthase misfolds and aggregates when exposed to heat shock at 43° C. This heat denaturation is prevented or delayed in the presence of HSP27 (CS+HSP27) (Jakob et al. (1993)). […] The samples were incubated at 43° C. and the aggregation behavior of CS was monitored in a spectrometer (PerkinElmer LS55) at a wavelength of 500 nm. Substances inhibiting HSP27's chaperone activity lead to continued denaturation of the client protein and its aggregation in solution. This inhibition correlates with the strength of the interaction between HSP27 and the test substance, which is related to its binding efficiency.
In the reference experiment BVDU (CS+HSP27+BVDU) was tested at a concentration of 750 μM as previously described (Heinrich et al. (2016)).
The compounds according to the invention were tested at a concentration of 10 μM.
For COc1ccc(-c2cccc(CC(=O)Nc3ccc(-n4cc(Cl)c(=O)[nH]c4=O)cc3)c2)cc1Cl [Compound 30, N-(4-(5-chloro-2,4-dioxo-3,4-dihydro-pyrimidin-1(2H)-yl)phenyl)-2-(3′-chloro-4′-methoxy-[1,1′-biphenyl]-3-yl)acetamide], the “aggregation value related to the value from reference experiment (CS + HSP27 + BVDU), which was set at 1.0” value (from here on “aggregation value related to the value”) was 0.79. COc1ccc(-c2cccc(CC(=O)Nc3ccc(-n4cc(C)c(=O)[nH]c4=O)cc3)c2)cc1 [Compound 31, 2-(4′-methoxy-[1,1′-biphenyl]-3-yl)-N-(4-(5-methyl-2,4-dioxo-3,4-dihydro-pyrimidin-1(2H)-yl)phenyl) acetamide] was tested, and the “aggregation value related to the value” value was 0.78. For O=C(Cc1cccc(-c2ccc(Cl)c(Cl)c2)c1)Nc1ccc(-n2ccc(=O)[nH]c2=O)cc1F [Compound 32, 2-(3′,4′-dichloro-[1,1′-biphenyl]-3-yl)-N-(4-(2,4-dioxo-3,4-dihydro-pyrimidin-1(2H)-yl)-2-fluoro-phenyl)acetamide], the “aggregation value related to the value” value was 0.76. In the case of Cc1cccc(-c2cccc(CC(=O)Nc3ccc(-n4ccc(=O)[nH]c4=O)cc3)c2)c1 [Compound 33, N-(4-(2,4-dioxo-3,4-dihydro-pyrimidin-1(2H)-yl)phenyl)-2-(3′-methyl-[1,1′-biphenyl]-3-yl) acetamide], the “aggregation value related to the value” value is reported as 0.69. In the case of O=C(Nc1ccc(Cn2ccc(=O)[nH]c2=O)cc1)c1cccc(-c2ccc(Cl)c(Cl)c2)c1 [Compound 34, 3′,4′-dichloro-N-(4-((2,4-dioxo-3,4-dihydro-pyrimidin-1(2H)-yl)methyl)phenyl)-[1,1′-biphenyl]-3-carboxamide], the “aggregation value related to the value” value is reported as 1.8. With O=C(Nc1ccc(Cn2ccc(=O)[nH]c2=O)cc1)c1cccc(-c2cccc(OC(F)(F)F)c2)c1 [Compound 35, N-(4-((2,4-dioxo-3,4-dihydro-pyrimidin-1(2H)-yl)methyl)phenyl)-3′-(trifluoro-methoxy)-[1,1′-biphenyl]-3-carboxamide] the “aggregation value related to the value” value was 1.55. With O=C(Nc1ccc(Cn2ccc(=O)[nH]c2=O)cc1)c1cccc(-c2cccc(Cl)c2)c1 [Compound 36, 3′-chloro-N-(4-((2,4-dioxo-3,4-dihydro-pyrimidin-1(2H)-yl)methyl)phenyl)-[1,1′-biphenyl]-3-carboxamide] the “aggregation value related to the value” value was 1.23. COc1ccc(-c2cccc(C(=O)Nc3ccc(Cn4ccc(=O)[nH]c4=O)cc3)c2)cc1Cl [Compound 37, 3′-chloro-N-(4-((2,4-dioxo-3,4-dihydro-pyrimidin-1(2H)-yl)methyl)phenyl)-4′-methoxy-[1,1′-biphenyl]-3-carboxamide] was tested, and the “aggregation value related to the value” value was 0.91. For O=C(Cc1cccc(-c2cccc(OC(F)(F)F)c2)c1)Nc1cccc(-n2ccc(=O)[nH]c2=O)c1 [Compound 39, N-(3-(2,4-dioxo-3,4-dihydro-pyrimidin-1(2H)-yl)phenyl)-2-(3′-(trifluoro-methoxy)-[1,1′-biphenyl]-3-yl) acetamide], the “aggregation value related to the value” value was 1.21. O=C(Cc1cccc(-c2ccc(Cl)c(Cl)c2)c1)Nc1cccc(-n2ccc(=O)[nH]c2=O)c1 [Compound 40, 2-(3′,4′-dichloro-[1,1′-biphenyl]-3-yl)-N-(3-(2,4-dioxo-3,4-dihydro-pyrimidin-1(2H)-yl)phenyl) acetamide] was tested, and the “aggregation value related to the value” value was 1.8. COc1ccc(-c2cccc(CC(=O)Nc3cccc(-n4ccc(=O)[nH]c4=O)c3)c2)cc1Cl [Compound 41, 2-(3′-chloro-4′-methoxy-[1,1′-biphenyl]-3-yl)-N-(3-(2,4-dioxo-3,4-dihydro-pyrimidin-1(2H)-yl)phenyl) acetamide] was tested, and the “aggregation value related to the value” value was 1.24. In the case of Cc1cccc(-c2cccc(C(=O)Nc3ccc(-n4ccc(=O)[nH]c4=O)cc3)c2)c1 [Compound 42, N-(4-(2,4-dioxo-3,4-dihydro-pyrimidin-1(2H)-yl)phenyl)-3′-methyl-[1,1′-biphenyl]-3-carboxamide], the “aggregation value related to the value” value is reported as 0.66. In the case of O=C(Nc1ccc(-n2ccc(=O)[nH]c2=O)cc1)c1cccc(-c2cccc(Cl)c2)c1 [Compound 43, 3′-chloro-N-(4-(2,4-dioxo-3,4-dihydro-pyrimidin-1(2H)-yl)phenyl)-[1,1′-biphenyl]-3-carboxamide], the “aggregation value related to the value” value is reported as 0.79. For COc1ccc(-c2cccc(C(=O)Nc3ccc(-n4ccc(=O)[nH]c4=O)cc3)c2)cc1Cl [Compound 44, 3′-chloro-N-(4-(2,4-dioxo-3,4-dihydro-pyrimidin-1(2H)-yl)phenyl)-4′-methoxy-[1,1′-biphenyl]-3-carboxamide], the “aggregation value related to the value” value was 0.83. With COc1ccc(-c2cccc(C(=O)Nc3ccc(-n4cc(C)c(=O)[nH]c4=O)cc3)c2)cc1Cl [Compound 45, 3′-chloro-4′-methoxy-N-(4-(5-methyl-2,4-dioxo-3,4-dihydro-pyrimidin-1(2H)-yl)phenyl)-[1,1′-biphenyl]-3-carboxamide] the “aggregation value related to the value” value was 0.88. COc1cccc(-c2cccc(C(=O)Nc3ccc(-n4cc(C)c(=O)[nH]c4=O)cc3)c2)c1 [Compound 46, 3′-methoxy-N-(4-(5-methyl-2,4-dioxo-3,4-dihydro-pyrimidin-1(2H)-yl)phenyl)-[1,1′-biphenyl]-3-carboxamide] was tested, and the “aggregation value related to the value” value was 0.75. In the case of Cc1cn(-c2ccc(NC(=O)c3cccc(-c4cccc(OC(F)(F)F)c4)c3)cc2)c(=O)[nH]c1=O [Compound 47, N-(4-(5-methyl-2,4-dioxo-3,4-dihydro-pyrimidin-1(2H)-yl)phenyl)-3′-(trifluoro-methoxy)-[1,1′-biphenyl]-3-carboxamide], the “aggregation value related to the value” value is reported as 1.46. For O=C(Nc1ccc(-n2cc(Cl)c(=O)[nH]c2=O)cc1)c1cccc(-c2cccc(OC(F)(F)F)c2)c1 [Compound 48, N-(4-(5-chloro-2,4-dioxo-3,4-dihydro-pyrimidin-1(2H)-yl)phenyl)-3′-(trifluoro-methoxy)-[1,1′-biphenyl]-3-carboxamide], the “aggregation value related to the value” value was 0.7. For Cc1ccc(-c2cccc(C(=O)Nc3ccc(-n4cc(C)c(=O)[nH]c4=O)cc3)c2)cc1Cl [Compound 49, 3′-chloro-4′-methyl-N-(4-(5-methyl-2,4-dioxo-3,4-dihydro-pyrimidin-1(2H)-yl)phenyl)-[1,1′-biphenyl]-3-carboxamide], the “aggregation value related to the value” value was 1.16. For Cc1ccc(-c2cccc(C(=O)Nc3ccc(-n4ccc(=O)[nH]c4=O)cc3)c2)cc1Cl [Compound 50, 3′-chloro-N-(4-(2,4-dioxo-3,4-dihydro-pyrimidin-1(2H)-yl)phenyl)-4′-methyl-[1,1′-biphenyl]-3-carboxamide], the “aggregation value related to the value” value was 0.73. With O=C(Cc1cccc(-c2ccc(Cl)c(Cl)c2)c1)Nc1ccc(-n2cc(Cl)c(=O)[nH]c2=O)cc1 [Compound 51, N-(4-(5-chloro-2,4-dioxo-3,4-dihydro-pyrimidin-1(2H)-yl)phenyl)-2-(3′,4′-dichloro-[1,1′-biphenyl]-3-yl)acetamide] the “aggregation value related to the value” value was 0.73. With O=C(Cc1cn(-c2ccc(-n3ccc(=O)[nH]c3=O)cc2)nn1)Nc1ccc(Cl)c(Cl)c1 [Compound 52, N-(3,4-dichlorophenyl)-2-(1-(4-(2,4-dioxo-3,4-dihydropyrimidin-1(2H)-yl)phenyl)-1H-1,2,3-triazol-4-yl)acetamide] the “aggregation value related to the value” value was 1. O=C(Cc1cn(-c2ccc(-n3ccc(=O)[nH]c3=O)cc2)nn1)NCc1ccc(Cl)c(Cl)c1 [Compound 53] was tested, and the “aggregation value related to the value” value was 1.67. With O=C(NCc1cn(-c2ccc(-n3ccc(=O)[nH]c3=O)cc2)nn1)c1ccc(Cl)c(Cl)c1 [Compound 54, 3,4-Dichloro-N-((1-(4-(2,4-dioxo-3,4-dihydropyrimidin-1(2H)-yl)phenyl)-1H-1,2,3-triazol-4-yl)methyl)benzamide] the “aggregation value related to the value” value was 1.42. For O=C(Cc1ccc(Cl)c(Cl)c1)NCc1cn(-c2ccc(-n3ccc(=O)[nH]c3=O)cc2)nn1 [Compound 55, 2-(3,4-Dichlorophenyl)-N-((1-(4-(2,4-dioxo-3,4-dihydropyrimidin-1(2H)-yl)phenyl)-1H-1,2,3-triazol-4-yl)methyl)acetamide], the “aggregation value related to the value” value was 1.05. For O=c1ccn(-c2ccc(-n3cc(-c4ccc(Cl)c(Cl)c4)nn3)cc2)c(=O)[nH]1 [Compound 56, 1-(4-(4-(3,4-Dichlorophenyl)-1H-1,2,3-triazol-1-yl)phenyl)pyrimidine-2,4(1H,3H)-dione], the “aggregation value related to the value” value was 1.39.
